These results are taken from patent US8829015B2 (Novartis AG, priority 2005, dated 2014).

Structures are written as SMILES. In brackets after ≈: the same amount, converted by molar mass. Several values for one entry are separate records, joined by “and”; a condition that tells them apart may be missing. Equal values may be shown once. Where a name gives a salt, the structure may show the parent alone.

Data set [1] in a line: Equilibration of A-B mixtures of the hydrochloride salt in solvents. It counts as physicochemical.
Data set [2] in a line: Equilibration of hydrochloride forms A, B and C with solvents, XRPD. The data set is classed as physicochemical. From the text:
Then the solutions were filtered and the solid part investigated by XRPD.

The nature of data set [3]: Intrinsic dissolution rate (rotating disk). It counts as physicochemical. The settings on record: for Intrinsic dissolution rate: 37° C., 200 rpm. The procedure: Intrinsic Dissolution Rate (IDR): Dissolution rate measurements were performed at 37° C. using the rotating disk method (VanKell Instrument). A single rotation speed of 200 rpm was used. For IDR in 0.1N HCl, an 800 mL volume, and for IDR in water, a 200 mL volume were used. The solution was continuously pumped through a UV measuring cell and recycled to the dissolution vessel.
The measurements were carried out on a VanKel instrument using a Cary 100 photometer.

Data set [4] is described as follows: Stability studies on storage. It counts as physicochemical. As to conditions: storage at various relative humidities.
Data set [5] in a line: Form conversion on exposure to solvent vapor, air, moisture or room conditions. The data set is classed as physicochemical. The settings on record: in the presence of methanol vapor.
Data set [6] can be described thus: physchem. The settings on record: thermodynamic from solid.
Data set [7] can be described thus: Solubility by gravimetric techniques at different temperatures, residue by XRPD.
A short description of data set [8]: Hygroscopicity (water uptake). The data set is classed as physicochemical. As to conditions: 25° C. up to 80% r.h.
A short description of data set [9]: Thermal properties by TGA and DSC. The data set is classed as physicochemical.
Excerpt: Form A's basic thermal properties were studied by thermogravimetric analysis (TGA) and differential scanning calorimetry (DSC) and are as follows:
Data set [10] in a line: Equilibration of free base forms with solvents, XRPD. It counts as physicochemical. From the text: The solid part was investigated by XRPD.
Data set [11] in a line: pH of 1% solution or suspension in water. It counts as physicochemical. As to conditions: 1% in water; listed as Free base form B.
Data set [12] is described as follows: physchem. The settings on record: aqueous buffer solution, pH 2.8, aqueous buffer, thermodynamic from solid.
The mark [13] stands for this setting: methanol/water (95/5) v/v, 20 °C, organic solvent or mixture.
[14] abbreviates: methanol/water (95/5) v/v, 45 °C, organic solvent or mixture.
Setting [15] is: methanol/water (95/5) v/v, -10 °C, organic solvent or mixture.
Where [16] appears, read: methanol/water (99.5/0.5) v/v, 20 °C, organic solvent or mixture.
[17] abbreviates: methanol/water (99.5/0.5) v/v, 45 °C, organic solvent or mixture.

In the case of `Cc1cn(-c2cc(NC(=O)c3ccc(C)c(Nc4nccc(-c5cccnc5)n4)c3)cc(C(F)(F)F)c2)cn1`, the “Form after equilibration of A-B mixture” value in data set [1] (Methanol 0.25% water, 24 hours 40° C., ? = extra peak (unclear whether new form or free base)) was “B/?”; in data set [1] (Methanol 10% water, significant enrichment in A after 12 hours), “A/B”.
For the molecule `Cc1cn(-c2cc(NC(=O)c3ccc(C)c(Nc4nccc(-c5cccnc5)n4)c3)cc(C(F)(F)F)c2)cn1` [Form A of the hydrochloride salt], the “form transition on equilibration” value is “transitioned to a mixture of forms B and C” in data set [2] (methanol, 50° C., 1 day); “transitioned to form B” in data set [2] (methanol, one day, 25° C.); “transitioned to form C” in [2] (methanol/HCl 0.1N, 50° C., 1 day); “transitioned to form B with a small amount of form C” in data set [2] (methanol/HCl 0.1N, one day, 25° C.); “transitioned to form C” in data set [2] (methanol/water (99:1), 50° C., 1 day); “transitioned to form C with a small amount of form B” in [2] (methanol/water (99:1), one day, 25° C.). Moreover, the “form transition on equilibration” value in [2] (methanol/water (99.3:0.7), 50° C., 1 day) was “transitioned to form C”; in [2] (methanol/water (99.3:0.7), one day, 25° C.), “transitioned to form B with a small amount of form C”. Moreover, the “Intrinsic Dissolution Rate value” is 0.0003 mg/min/cm^2 in [3] (dissolution medium HCl 0.0001 N); 0.0089 mg/min/cm^2 in data set [3] (dissolution medium HCl 0.001 N); 0.0178 mg/min/cm^2 in data set [3] (dissolution medium HCl 0.01 N); 0.6778 mg/min/cm^2 and 1.2467 mg/min/cm^2 in [3] (dissolution medium HCl 0.1 N); 0.0004 mg/min/cm^2 in data set [3] (dissolution medium Water); 0.0076 mg/min/cm^2 in [3] (dissolution medium pH 2 (citrate buffer)). Further, in data set [4], the “form transition after storage” value is given as “No form transitions were observed”. For the same molecule, the form conversion result in data set [5] is “converts to form B”. The solubility (in general, the dissolved amount per volume that the medium holds) at 24 h in “physchem [6]” (0.001N HCl, 25 °C, aqueous buffer) is 0.92 mg/mL; in the data set “physchem [6]” (0.01N HCl, 50 °C, simulated gastric fluid), 0.85 mg/mL; in the data set “physchem [6]” (0.1N HCl, 25 °C, simulated gastric fluid), 1.32 mg/mL; in “physchem [6]” (methanol, 25 °C, organic solvent or mixture) it was 13.8 mg/mL; in “physchem [6]” (methanol, 50 °C, organic solvent or mixture), 52.5 mg/mL; in “physchem [6]” (setting [13]) it was 13.1 mg/mL. Moreover, the solubility at 24 h in the data set “physchem [6]” (setting [16]) is 12.2 mg/mL; in the data set “physchem [6]” (setting [17]), 41.9 mg/mL; in the data set “physchem [6]” (methanol/water (99.5/0.5) v/v, -10 °C, organic solvent or mixture), 4.96 mg/mL; in “physchem [6]” (water, 50 °C), 1.03 mg/mL. The solubility at 10 min stood at 25.7 mg/mL in “physchem [6]” (setting [13]); 46.1 mg/mL in the data set “physchem [6]” (setting [14]); 12.3 mg/mL in the data set “physchem [6]” (setting [15]); 33.7 mg/mL in “physchem [6]” (setting [16]); 52.2 mg/mL in “physchem [6]” (setting [17]). In addition, the solubility at 1 h in the data set “physchem [6]” (setting [14]) turned out to be 61.1 mg/mL; in “physchem [6]” (setting [15]) it was 14.4 mg/mL; in “physchem [6]” (setting [17]), 62.5 mg/mL. For the same molecule, the Solubility – broadly, the dissolved amount per volume that the medium holds – in data set [7] (0.0001N HCl, 25° C., after 24 hours) was determined as 0.45 mg/mL; in data set [7] (0.001N HCl, 50° C., after 24 hours) it was 0.79 mg/mL; in [7] (0.01N HCl, 25° C., after 24 hours), 0.43 mg/mL; in data set [7] (0.1N HCl, 50° C., after 24 hours), 2.46 mg/mL; in [7] (Methanol/Water (95/5) v/v, 20° C., 1 hour), 28.18 mg/mL; in data set [7] (Methanol/Water (95/5) v/v, −10° C., 24 hours), 4.74 mg/mL. For the same molecule, the Solubility was 24.01 mg/mL in [7] (Methanol/Water (99.5/0.5) v/v, −10° C., 10 minutes); 26.37 mg/mL in data set [7] (Methanol/Water (99.5/0.5) v/v, −10° C., 1 hour); 0.35 mg/mL in data set [7] (Water, 25° C., after 24 hours). The “XRPD (form of the solid)” value in data set [7] (Methanol, 50° C., after 24 hours) is recorded as “C + B”; in [7] (Methanol/Water (95/5) v/v, 45° C., 1 hour), “A + B + C”; in data set [7] (Methanol/Water (99.5/0.5) v/v, 20° C., 10 minutes) it was “A + B”; in data set [7] (Methanol/Water (99.5/0.5) v/v, 20° C., 1 hour), “A + B”; in data set [7] (Methanol/Water (99.5/0.5) v/v, 45° C., 10 minutes) it was “A + B”; in [7] (Methanol/Water (99.5/0.5) v/v, 45° C., 1 hour), “C + B”. Further, in [7] (Methanol/Water (99.5/0.5) v/v, 45° C., 24 hours), the “XRPD (form of the solid)” value is reported as “C + B”.
Regarding `Cc1cn(-c2cc(NC(=O)c3ccc(C)c(Nc4nccc(-c5cccnc5)n4)c3)cc(C(F)(F)F)c2)cn1` [Form B of the free base], the hygroscopicity entry in [8] is given as “not hygroscopic”. For the same molecule, the maximum water uptake entry in data set [8] is on record as “less than 0.2%”. This molecule returned a Decomposition temperature in data set [9] above 300 °C. In addition, the “form transition on equilibration” value in data set [10] (seven solvents (methanol, ethanol, 2-propanol, ethyl acetate, acetone, tetrahydrofuran, acetonitrile), at least 48 hours, room temperature) is recorded as “No form transition occurred”; in data set [10] (thirteen solvents, one day, 25° C.), “No form transitions occurred with the exception of one trial of form B in water”. In addition, the Intrinsic dissolution rate in data set [3] (Water, listed as Free base form B) was 0.0013 mg min^−1cm^−2; in data set [3] (pH 1 (0.1 N HCl)) it was 0.17 mg min^−1cm^−2. In [11], the “pH of 1% solution or suspension in water” value turned out to be 7.99. Further, the Solubility in the data set “physchem [12]” was determined as 0.0028 mg/mL (≈ 5.29 µM).
Take `Cc1cn(-c2cc(NC(=O)c3ccc(C)c(Nc4nccc(-c5cccnc5)n4)c3)cc(C(F)(F)F)c2)cn1` [form A/form B (1:1)]: in data set [10] (seven solvents (ethanol absolute, methanol, tetrahydrofuran, water, tetrahydrofuran/water, ethanol/water, methanol/water 1:1), one day, 25° C.), the “form transition on equilibration” value is on record as “No form transitions occurred”.
